“And” between values parts separate entries of the source, which are not always exact repeats. Equal values may be shown once.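 A five-concentration, 48-hour dose response in 96-well plates underlies each endpoint, interpolated linearly between surrounding concentrations. The concentration for 50% growth inhibition is given as GI50. TGI is the concentration that stops growth completely.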
What was measured:
Assay in all cases: growth of human tumour cells (NCI), 48 h
A498 renal = tested on: A498 renal
A549 NSCLC = tested on: A549 NSCLC
ACHN renal = tested on: ACHN renal
DMS 114 small cell lung = tested on: DMS 114 small cell lung
EKVX NSCLC = tested on: EKVX NSCLC
HCT-116 colon = tested on: HCT-116 colon
HL-60(TB) leukemia = tested on: HL-60(TB) leukemia
HOP-62 NSCLC = tested on: HOP-62 NSCLC
HOP-92 NSCLC = tested on: HOP-92 NSCLC
HT29 colon = tested on: HT29 colon
IGROV1 ovarian = tested on: IGROV1 ovarian
KM12 colon = tested on: KM12 colon
M14 melanoma = tested on: M14 melanoma
M19-MEL melanoma = tested on: M19-MEL melanoma
NCI-H226 lung = tested on: NCI-H226 lung
NCI-H23 lung = tested on: NCI-H23 lung
NCI-H460 lung = tested on: NCI-H460 lung
OVCAR-5 ovarian = tested on: OVCAR-5 ovarian
OVCAR-8 ovarian = tested on: OVCAR-8 ovarian
RXF 393 renal = tested on: RXF 393 renal
SF-295 CNS = tested on: SF-295 CNS
SK-MEL-28 melanoma = tested on: SK-MEL-28 melanoma
SK-OV-3 ovarian = tested on: SK-OV-3 ovarian
SNB-19 CNS = tested on: SNB-19 CNS
SNB-78 CNS = tested on: SNB-78 CNS
SR leukemia = tested on: SR leukemia
TK-10 renal = tested on: TK-10 renal
U251 CNS = tested on: U251 CNS
UACC-257 melanoma = tested on: UACC-257 melanoma
UACC-62 melanoma = tested on: UACC-62 melanoma
UO-31 renal = tested on: UO-31 renal
786-0 renal = tested on: 786-0 renal
BT-549 breast = tested on: BT-549 breast
CAKI-1 renal = tested on: CAKI-1 renal
CCRF-CEM leukemia = tested on: CCRF-CEM leukemia
COLO 205 colon = tested on: COLO 205 colon
DU-145 prostate = tested on: DU-145 prostate
HCC-2998 colon = tested on: HCC-2998 colon
HCT-15 colon = tested on: HCT-15 colon
HS 578T breast = tested on: HS 578T breast
K-562 leukemia = tested on: K-562 leukemia
LOX IMVI melanoma = tested on: LOX IMVI melanoma
MALME-3M melanoma = tested on: MALME-3M melanoma
MCF7 breast = tested on: MCF7 breast
MDA-MB-231 breast = tested on: MDA-MB-231 breast
MDA-MB-435 = tested on: MDA-MB-435
MDA-N = tested on: MDA-N
MOLT-4 leukemia = tested on: MOLT-4 leukemia
NCI-H522 lung = tested on: NCI-H522 lung
NCI/ADR-RES ovarian = tested on: NCI/ADR-RES ovarian
OVCAR-3 ovarian = tested on: OVCAR-3 ovarian
OVCAR-4 ovarian = tested on: OVCAR-4 ovarian
PC-3 prostate = tested on: PC-3 prostate
RPMI-8226 leukemia = tested on: RPMI-8226 leukemia
SF-268 CNS = tested on: SF-268 CNS
SF-539 CNS = tested on: SF-539 CNS
SK-MEL-2 melanoma = tested on: SK-MEL-2 melanoma
SK-MEL-5 melanoma = tested on: SK-MEL-5 melanoma
SN12C renal = tested on: SN12C renal
SNB-75 CNS = tested on: SNB-75 CNS
SW-620 colon = tested on: SW-620 colon
T-47D breast = tested on: T-47D breast

## COc1cc(O)c2c(c1C)C(C)(O)c1c(C)coc1C2=O (stereo not given)
A498 renal
  TGI: > 100 µM
A549 NSCLC
  TGI: > 100 µM
ACHN renal
  TGI: > 100 µM
DMS 114 small cell lung
  TGI: > 100 µM
EKVX NSCLC
  TGI: > 100 µM
HCT-116 colon
  TGI: > 100 µM
HL-60(TB) leukemia
  TGI: > 100 µM
HOP-62 NSCLC
  TGI: > 100 µM
HOP-92 NSCLC
  TGI: > 100 µM
HT29 colon
  TGI: > 100 µM
IGROV1 ovarian
  TGI: > 100 µM
KM12 colon
  TGI: > 100 µM
M14 melanoma
  TGI: > 100 µM
M19-MEL melanoma
  TGI: > 100 µM
NCI-H226 lung
  TGI: > 100 µM
NCI-H23 lung
  TGI: > 100 µM
NCI-H460 lung
  TGI: > 100 µM
OVCAR-5 ovarian
  TGI: > 100 µM
OVCAR-8 ovarian
  TGI: > 100 µM
RXF 393 renal
  TGI: > 100 µM
SF-295 CNS
  TGI: > 100 µM
SK-MEL-28 melanoma
  TGI: > 100 µM
SK-OV-3 ovarian
  TGI: > 100 µM
SNB-19 CNS
  TGI: > 100 µM
SNB-78 CNS
  TGI: > 100 µM
SR leukemia
  TGI: > 100 µM
TK-10 renal
  TGI: > 100 µM
U251 CNS
  TGI: > 100 µM
UACC-257 melanoma
  TGI: > 100 µM
UACC-62 melanoma
  TGI: > 100 µM
UO-31 renal
  TGI: > 100 µM

## COc1ccc(/C=C/C(=O)OC2CC34CCNC35CC(OC5(OC)C2OC)c2ccc(OC)c(O)c24)cc1O (stereo not given)
786-0 renal
  GI50: 22.2 µM and > 100 µM
  TGI: 52.3 µM and > 100 µM
A498 renal
  TGI: > 100 µM
A549 NSCLC
  TGI: > 100 µM
ACHN renal
  TGI: > 100 µM
BT-549 breast
  TGI: > 100 µM
CAKI-1 renal
  TGI: > 100 µM
CCRF-CEM leukemia
  GI50: 30.8 µM and > 100 µM
  TGI: > 100 µM
COLO 205 colon
  GI50: 18.4 µM and > 100 µM
  TGI: 35.7 µM and > 100 µM
DU-145 prostate
  TGI: > 100 µM
EKVX NSCLC
  TGI: > 100 µM
HCC-2998 colon
  GI50: 30.6 µM and > 100 µM
  TGI: 94.2 µM and > 100 µM
HCT-116 colon
  GI50: 47.2 µM and > 100 µM
  TGI: > 100 µM
HCT-15 colon
  TGI: > 100 µM
HL-60(TB) leukemia
  TGI: 62.8 µM
HOP-62 NSCLC
  TGI: > 100 µM
HOP-92 NSCLC
  TGI: > 100 µM
HS 578T breast
  TGI: > 100 µM
HT29 colon
  GI50: 19.7 µM and > 100 µM
  TGI: 43.6 µM and > 100 µM
IGROV1 ovarian
  TGI: > 100 µM
K-562 leukemia
  GI50: 33.7 µM and > 100 µM
  TGI: > 100 µM
KM12 colon
  GI50: 31.6 µM and > 100 µM
  TGI: > 100 µM
LOX IMVI melanoma
  GI50: 30.4 µM and > 100 µM
  TGI: 76.5 µM and > 100 µM
M14 melanoma
  TGI: > 100 µM
MALME-3M melanoma
  GI50: 11.3 µM and > 100 µM
  TGI: 50.9 µM and > 100 µM
MCF7 breast
  TGI: > 100 µM
MDA-MB-231 breast
  GI50: 49.7 µM and > 100 µM
  TGI: > 100 µM
MDA-MB-435
  TGI: > 100 µM
MDA-N
  TGI: > 100 µM
MOLT-4 leukemia
  GI50: 22.4 µM and > 100 µM
  TGI: 93.1 µM and > 100 µM
NCI-H226 lung
  TGI: > 100 µM
NCI-H23 lung
  TGI: > 100 µM
NCI-H460 lung
  TGI: > 100 µM
NCI-H522 lung
  GI50: 49.6 µM and > 100 µM
  TGI: > 100 µM
NCI/ADR-RES ovarian
  TGI: > 100 µM
OVCAR-3 ovarian
  GI50: 35.5 µM and > 100 µM
  TGI: > 100 µM
OVCAR-4 ovarian
  TGI: > 100 µM
OVCAR-5 ovarian
  TGI: > 100 µM
OVCAR-8 ovarian
  TGI: > 100 µM
PC-3 prostate
  GI50: 38.9 µM and > 100 µM
  TGI: > 100 µM
RPMI-8226 leukemia
  GI50: 34.6 µM and > 100 µM
  TGI: > 100 µM
RXF 393 renal
  GI50: 21.6 µM and > 100 µM
  TGI: 65.6 µM and > 100 µM
SF-268 CNS
  TGI: > 100 µM
SF-295 CNS
  TGI: > 100 µM
SF-539 CNS
  TGI: > 100 µM
SK-MEL-2 melanoma
  TGI: > 100 µM
SK-MEL-28 melanoma
  TGI: > 100 µM
SK-MEL-5 melanoma
  TGI: > 100 µM
SK-OV-3 ovarian
  TGI: > 100 µM
SN12C renal
  TGI: > 100 µM
SNB-19 CNS
  TGI: > 100 µM
SNB-75 CNS
  GI50: 14 µM and > 100 µM
  TGI: 92.7 µM and > 100 µM
SR leukemia
  GI50: 25.4 µM and > 100 µM
  TGI: > 100 µM
SW-620 colon
  TGI: > 100 µM
T-47D breast
  TGI: > 100 µM
TK-10 renal
  TGI: > 100 µM
U251 CNS
  GI50: 38.2 µM and > 100 µM
  TGI: > 100 µM
UACC-257 melanoma
  TGI: > 100 µM
UACC-62 melanoma
  TGI: > 100 µM
UO-31 renal
  TGI: > 100 µM
